Assays:
MEK5 = molecular target: T1, MEK5 (Homo sapiens, UniProt Q13163); details: 1 μM; Run 1, Run 2
T1 sequence (Q13163 1-448): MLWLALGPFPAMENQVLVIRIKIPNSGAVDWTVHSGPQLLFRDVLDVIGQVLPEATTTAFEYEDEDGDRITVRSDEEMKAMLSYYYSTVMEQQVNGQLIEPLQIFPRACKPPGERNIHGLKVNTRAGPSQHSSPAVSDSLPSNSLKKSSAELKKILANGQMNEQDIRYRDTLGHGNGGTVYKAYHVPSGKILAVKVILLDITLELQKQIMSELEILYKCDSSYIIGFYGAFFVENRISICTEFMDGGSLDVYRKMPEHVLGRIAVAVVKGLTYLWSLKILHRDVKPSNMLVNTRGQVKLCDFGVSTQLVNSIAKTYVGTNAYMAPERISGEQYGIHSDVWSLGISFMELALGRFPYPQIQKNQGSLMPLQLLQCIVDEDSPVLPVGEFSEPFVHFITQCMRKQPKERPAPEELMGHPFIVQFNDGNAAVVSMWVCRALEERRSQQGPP

MEKK3 = molecular target: T2, MEKK3 (Homo sapiens, UniProt Q99759); details: 1 μM; Run 1, Run 2
T2 sequence (Q99759 1-626): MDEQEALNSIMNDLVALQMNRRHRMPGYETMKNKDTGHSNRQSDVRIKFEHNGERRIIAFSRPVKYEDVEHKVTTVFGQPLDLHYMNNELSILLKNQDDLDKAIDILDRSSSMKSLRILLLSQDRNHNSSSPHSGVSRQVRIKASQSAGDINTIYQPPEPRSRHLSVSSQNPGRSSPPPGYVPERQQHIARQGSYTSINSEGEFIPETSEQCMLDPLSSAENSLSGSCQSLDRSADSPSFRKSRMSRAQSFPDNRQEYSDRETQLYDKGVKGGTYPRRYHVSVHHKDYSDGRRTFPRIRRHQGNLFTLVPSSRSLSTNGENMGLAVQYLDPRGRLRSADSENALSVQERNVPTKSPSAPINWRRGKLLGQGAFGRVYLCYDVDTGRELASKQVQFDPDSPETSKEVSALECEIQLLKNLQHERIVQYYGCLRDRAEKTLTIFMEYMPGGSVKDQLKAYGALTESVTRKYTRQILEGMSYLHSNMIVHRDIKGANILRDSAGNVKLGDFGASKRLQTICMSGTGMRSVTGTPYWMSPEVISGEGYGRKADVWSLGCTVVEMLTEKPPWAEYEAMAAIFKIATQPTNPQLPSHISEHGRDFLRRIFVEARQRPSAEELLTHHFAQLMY

PBK/TOPK = molecular target: T3, PBK/TOPK (Homo sapiens, UniProt Q96KB5); details: 1 μM; Run 1, Run 2
T3 sequence (Q96KB5 1-322): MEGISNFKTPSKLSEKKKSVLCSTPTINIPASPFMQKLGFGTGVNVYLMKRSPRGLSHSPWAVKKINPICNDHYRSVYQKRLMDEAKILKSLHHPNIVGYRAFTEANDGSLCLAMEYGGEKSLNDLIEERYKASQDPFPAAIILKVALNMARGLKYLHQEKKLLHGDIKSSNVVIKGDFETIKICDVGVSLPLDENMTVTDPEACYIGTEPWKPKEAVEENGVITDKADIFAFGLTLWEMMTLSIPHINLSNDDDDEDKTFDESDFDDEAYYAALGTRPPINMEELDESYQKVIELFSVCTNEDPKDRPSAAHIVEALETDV

MEK2 = MEK2 (Homo sapiens, UniProt P36507); assay: biochemical; details: read-out: % enzyme activity, 1 μM; Run 1, Run 2
MEK2, sequence (P36507 whole entry): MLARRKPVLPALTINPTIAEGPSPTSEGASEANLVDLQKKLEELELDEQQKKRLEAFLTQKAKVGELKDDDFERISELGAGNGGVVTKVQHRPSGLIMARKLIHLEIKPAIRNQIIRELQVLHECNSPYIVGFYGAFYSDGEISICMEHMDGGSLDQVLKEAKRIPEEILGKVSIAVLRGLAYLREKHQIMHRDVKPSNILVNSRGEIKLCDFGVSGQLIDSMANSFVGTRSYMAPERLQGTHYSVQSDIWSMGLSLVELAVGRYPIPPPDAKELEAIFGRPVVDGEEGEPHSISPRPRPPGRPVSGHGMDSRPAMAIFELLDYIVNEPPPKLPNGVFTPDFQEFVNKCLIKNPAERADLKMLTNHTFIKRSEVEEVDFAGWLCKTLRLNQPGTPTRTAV

MLCK/MYLK = MLCK/MYLK (Homo sapiens, UniProt Q15746); assay: biochemical; details: read-out: % enzyme activity, 1 μM; Run 1, Run 2
MLCK/MYLK, sequence (Q15746 whole entry): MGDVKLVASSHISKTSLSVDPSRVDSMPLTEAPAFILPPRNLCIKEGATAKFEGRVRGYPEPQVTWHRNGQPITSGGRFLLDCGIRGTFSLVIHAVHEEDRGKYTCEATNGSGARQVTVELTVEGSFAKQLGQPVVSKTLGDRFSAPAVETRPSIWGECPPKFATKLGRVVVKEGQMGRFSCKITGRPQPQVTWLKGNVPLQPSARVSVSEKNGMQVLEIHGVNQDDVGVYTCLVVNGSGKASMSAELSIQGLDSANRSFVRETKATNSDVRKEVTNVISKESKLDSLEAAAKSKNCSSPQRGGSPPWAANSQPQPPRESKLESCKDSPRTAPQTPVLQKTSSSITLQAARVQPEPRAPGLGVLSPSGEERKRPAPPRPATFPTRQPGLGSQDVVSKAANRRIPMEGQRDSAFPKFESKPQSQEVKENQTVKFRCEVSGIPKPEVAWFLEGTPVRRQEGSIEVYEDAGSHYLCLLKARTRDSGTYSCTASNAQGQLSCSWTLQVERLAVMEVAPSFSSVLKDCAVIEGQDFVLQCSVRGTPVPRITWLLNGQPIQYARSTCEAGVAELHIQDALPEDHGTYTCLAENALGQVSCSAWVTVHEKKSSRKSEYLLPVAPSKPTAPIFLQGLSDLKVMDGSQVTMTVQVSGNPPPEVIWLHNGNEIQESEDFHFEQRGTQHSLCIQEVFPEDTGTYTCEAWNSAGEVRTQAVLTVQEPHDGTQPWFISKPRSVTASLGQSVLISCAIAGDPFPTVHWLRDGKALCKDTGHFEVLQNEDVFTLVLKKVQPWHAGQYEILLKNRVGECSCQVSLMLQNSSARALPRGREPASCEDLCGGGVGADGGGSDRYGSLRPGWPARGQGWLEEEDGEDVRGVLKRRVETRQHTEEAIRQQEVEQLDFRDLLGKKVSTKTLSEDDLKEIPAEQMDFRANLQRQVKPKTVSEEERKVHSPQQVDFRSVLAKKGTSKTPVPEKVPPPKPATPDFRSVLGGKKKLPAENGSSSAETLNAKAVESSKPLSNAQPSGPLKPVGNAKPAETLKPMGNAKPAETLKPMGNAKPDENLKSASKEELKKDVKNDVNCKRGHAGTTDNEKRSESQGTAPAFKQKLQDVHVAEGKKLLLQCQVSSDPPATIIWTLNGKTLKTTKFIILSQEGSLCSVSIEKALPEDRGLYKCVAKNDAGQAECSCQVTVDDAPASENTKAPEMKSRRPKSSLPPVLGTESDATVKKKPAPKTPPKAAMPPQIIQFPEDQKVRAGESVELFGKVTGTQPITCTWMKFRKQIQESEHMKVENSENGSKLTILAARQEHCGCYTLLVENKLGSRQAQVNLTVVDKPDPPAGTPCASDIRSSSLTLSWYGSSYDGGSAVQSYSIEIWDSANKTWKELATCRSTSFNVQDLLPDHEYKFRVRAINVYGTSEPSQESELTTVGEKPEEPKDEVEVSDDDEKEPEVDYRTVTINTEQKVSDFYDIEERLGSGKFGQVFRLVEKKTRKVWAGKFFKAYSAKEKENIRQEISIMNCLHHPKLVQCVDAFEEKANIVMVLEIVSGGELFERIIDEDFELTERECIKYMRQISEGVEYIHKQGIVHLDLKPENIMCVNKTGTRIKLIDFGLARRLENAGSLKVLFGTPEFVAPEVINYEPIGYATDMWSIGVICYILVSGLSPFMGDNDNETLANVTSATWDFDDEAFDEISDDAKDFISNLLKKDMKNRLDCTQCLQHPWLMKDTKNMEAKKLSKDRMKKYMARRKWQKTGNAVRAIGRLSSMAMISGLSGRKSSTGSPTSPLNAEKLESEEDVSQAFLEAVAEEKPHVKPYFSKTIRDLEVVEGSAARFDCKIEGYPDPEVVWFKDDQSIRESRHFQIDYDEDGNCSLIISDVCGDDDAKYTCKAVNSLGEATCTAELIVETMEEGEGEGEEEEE

MRCKa/CDC42BPA = MRCKa/CDC42BPA (Homo sapiens, UniProt Q5VT25); assay: biochemical; details: read-out: % enzyme activity, 1 μM; Run 1, Run 2
MRCKa/CDC42BPA, sequence (Q5VT25 whole entry): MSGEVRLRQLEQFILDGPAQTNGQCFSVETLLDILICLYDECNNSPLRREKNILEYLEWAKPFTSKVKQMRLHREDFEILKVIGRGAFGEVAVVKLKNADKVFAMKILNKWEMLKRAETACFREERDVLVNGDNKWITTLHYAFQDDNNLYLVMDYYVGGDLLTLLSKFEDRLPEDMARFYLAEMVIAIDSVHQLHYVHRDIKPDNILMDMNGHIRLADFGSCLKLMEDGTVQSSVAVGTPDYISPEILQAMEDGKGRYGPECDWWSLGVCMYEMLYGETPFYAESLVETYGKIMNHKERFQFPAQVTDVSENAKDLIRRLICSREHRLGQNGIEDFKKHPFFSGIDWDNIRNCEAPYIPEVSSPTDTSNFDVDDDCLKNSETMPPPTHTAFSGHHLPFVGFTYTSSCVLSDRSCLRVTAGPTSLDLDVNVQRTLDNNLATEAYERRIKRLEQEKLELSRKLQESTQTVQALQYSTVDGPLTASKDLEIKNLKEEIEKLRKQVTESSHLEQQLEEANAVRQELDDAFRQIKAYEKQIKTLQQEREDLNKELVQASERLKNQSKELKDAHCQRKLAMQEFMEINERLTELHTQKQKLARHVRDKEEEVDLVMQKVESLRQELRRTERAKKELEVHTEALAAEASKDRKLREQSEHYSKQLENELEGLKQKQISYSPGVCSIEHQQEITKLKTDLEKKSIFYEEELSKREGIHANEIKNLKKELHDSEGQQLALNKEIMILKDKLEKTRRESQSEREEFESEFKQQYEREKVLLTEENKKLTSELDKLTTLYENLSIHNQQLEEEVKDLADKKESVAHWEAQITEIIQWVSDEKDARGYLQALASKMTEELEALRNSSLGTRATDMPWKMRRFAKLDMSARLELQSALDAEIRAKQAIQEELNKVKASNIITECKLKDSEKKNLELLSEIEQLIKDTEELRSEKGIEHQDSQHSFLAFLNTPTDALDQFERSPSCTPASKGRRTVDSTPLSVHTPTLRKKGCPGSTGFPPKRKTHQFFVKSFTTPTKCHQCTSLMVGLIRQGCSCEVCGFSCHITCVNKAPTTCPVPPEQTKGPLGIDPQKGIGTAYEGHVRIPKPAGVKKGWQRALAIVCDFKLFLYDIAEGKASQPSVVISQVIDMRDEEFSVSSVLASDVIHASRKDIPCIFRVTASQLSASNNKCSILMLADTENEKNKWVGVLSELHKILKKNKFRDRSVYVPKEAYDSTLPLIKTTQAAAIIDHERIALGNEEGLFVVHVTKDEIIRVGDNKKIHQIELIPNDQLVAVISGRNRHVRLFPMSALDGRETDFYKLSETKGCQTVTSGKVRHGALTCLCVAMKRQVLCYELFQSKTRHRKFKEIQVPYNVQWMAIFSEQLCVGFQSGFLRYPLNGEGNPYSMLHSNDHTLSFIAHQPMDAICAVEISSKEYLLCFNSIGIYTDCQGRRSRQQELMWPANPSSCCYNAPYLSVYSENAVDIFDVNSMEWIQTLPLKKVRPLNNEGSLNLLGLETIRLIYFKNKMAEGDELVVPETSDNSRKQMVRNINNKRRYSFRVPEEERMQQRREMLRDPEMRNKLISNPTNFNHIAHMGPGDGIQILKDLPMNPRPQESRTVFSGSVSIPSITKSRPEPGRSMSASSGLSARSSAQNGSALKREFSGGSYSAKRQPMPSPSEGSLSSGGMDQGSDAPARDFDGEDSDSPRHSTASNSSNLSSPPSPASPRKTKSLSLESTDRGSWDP

MST2/STK3 = molecular target: T4, MST2/STK3 (Homo sapiens, UniProt Q13188); assay: biochemical; details: read-out: % enzyme activity, 1 μM; Run 1, Run 2
T4 sequence (Q13188 1-491): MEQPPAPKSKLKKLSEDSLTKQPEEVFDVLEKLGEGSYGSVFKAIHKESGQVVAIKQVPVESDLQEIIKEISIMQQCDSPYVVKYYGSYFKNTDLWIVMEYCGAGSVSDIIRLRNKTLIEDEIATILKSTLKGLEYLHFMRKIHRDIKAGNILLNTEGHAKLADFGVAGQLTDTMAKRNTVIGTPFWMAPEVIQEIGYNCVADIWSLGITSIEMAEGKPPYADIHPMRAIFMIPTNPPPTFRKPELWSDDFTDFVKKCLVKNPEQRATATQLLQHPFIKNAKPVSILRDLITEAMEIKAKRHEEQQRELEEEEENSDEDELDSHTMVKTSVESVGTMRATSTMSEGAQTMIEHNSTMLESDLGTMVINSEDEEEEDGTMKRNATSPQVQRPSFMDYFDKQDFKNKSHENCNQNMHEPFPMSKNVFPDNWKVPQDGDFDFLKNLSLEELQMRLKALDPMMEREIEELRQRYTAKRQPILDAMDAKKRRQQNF

TXK = molecular target: T5, TXK (Homo sapiens, UniProt P42681); assay: biochemical; details: read-out: % enzyme activity, 1 μM; Run 1, Run 2
T5 sequence (P42681 1-527): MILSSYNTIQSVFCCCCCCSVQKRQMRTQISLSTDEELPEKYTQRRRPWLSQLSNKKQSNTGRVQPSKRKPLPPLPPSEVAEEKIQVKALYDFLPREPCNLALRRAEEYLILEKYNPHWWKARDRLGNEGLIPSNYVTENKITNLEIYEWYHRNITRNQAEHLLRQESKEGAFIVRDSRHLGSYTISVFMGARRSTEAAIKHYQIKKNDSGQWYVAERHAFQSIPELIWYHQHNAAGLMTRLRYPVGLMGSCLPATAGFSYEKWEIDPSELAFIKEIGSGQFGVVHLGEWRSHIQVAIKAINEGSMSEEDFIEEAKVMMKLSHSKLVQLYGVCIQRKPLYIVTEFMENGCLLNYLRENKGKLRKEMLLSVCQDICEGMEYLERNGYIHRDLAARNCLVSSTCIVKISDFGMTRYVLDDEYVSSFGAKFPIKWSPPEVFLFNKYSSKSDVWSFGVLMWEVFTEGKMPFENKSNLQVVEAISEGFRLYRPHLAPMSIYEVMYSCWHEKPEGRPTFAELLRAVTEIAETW

TYK1/LTK = TYK1/LTK (Homo sapiens, UniProt P29376); assay: biochemical; details: read-out: % enzyme activity, 1 μM; Run 1, Run 2
TYK1/LTK, sequence (P29376 17-864): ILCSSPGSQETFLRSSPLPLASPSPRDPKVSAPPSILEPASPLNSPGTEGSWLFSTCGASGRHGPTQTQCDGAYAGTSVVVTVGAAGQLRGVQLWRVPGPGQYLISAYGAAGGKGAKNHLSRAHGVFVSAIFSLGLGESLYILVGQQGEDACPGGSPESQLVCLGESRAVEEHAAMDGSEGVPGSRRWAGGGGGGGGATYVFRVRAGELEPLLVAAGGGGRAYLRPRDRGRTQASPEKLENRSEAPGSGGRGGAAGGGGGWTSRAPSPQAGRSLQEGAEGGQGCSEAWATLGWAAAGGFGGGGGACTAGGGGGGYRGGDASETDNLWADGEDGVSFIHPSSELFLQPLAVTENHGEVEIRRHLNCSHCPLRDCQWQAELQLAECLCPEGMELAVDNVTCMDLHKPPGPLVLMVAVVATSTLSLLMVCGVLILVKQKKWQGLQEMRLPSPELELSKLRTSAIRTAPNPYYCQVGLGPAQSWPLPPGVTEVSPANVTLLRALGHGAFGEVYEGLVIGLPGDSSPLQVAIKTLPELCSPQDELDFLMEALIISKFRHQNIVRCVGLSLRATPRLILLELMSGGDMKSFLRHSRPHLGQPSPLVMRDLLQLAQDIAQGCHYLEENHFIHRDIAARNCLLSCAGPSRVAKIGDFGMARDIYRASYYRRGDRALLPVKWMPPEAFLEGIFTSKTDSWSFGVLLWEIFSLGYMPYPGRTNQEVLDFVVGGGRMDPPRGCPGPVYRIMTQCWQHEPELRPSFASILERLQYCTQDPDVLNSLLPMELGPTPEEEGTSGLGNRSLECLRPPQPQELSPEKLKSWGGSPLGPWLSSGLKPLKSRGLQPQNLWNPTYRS

SMILES | % enzyme activity (MEK5) [%] | % enzyme activity (MEKK3) [%] | % enzyme activity (PBK/TOPK) [%] | remaining activity at 1 µM (MEK2) [%] | remaining activity at 1 µM (MLCK/MYLK) [%] | remaining activity at 1 µM (MRCKa/CDC42BPA) [%] | remaining activity at 1 µM (MST2/STK3) [%] | remaining activity at 1 µM (TXK) [%] | remaining activity at 1 µM (TYK1/LTK) [%]
COc1cc(-c2cncc(-c3ccc(N4C[C@@H](C)N(C)[C@@H](C)C4)cc3)c2C)cc(F)c1C(N)=O [Compound 26c, 2-Fluoro-6-methoxy-4-(4-methyl-5-(4-((3R,5S)-3,4,5-trimethylpiperazin-1-yl)phenyl)pyridin-3-yl)benzamide] | 92.97 | 100.00 | 102.56 | 94 | 103 | 105 | 102 | 98.2 | 99.3
COc1cc(-c2cncc(-c3ccc(N4CCN(C)CC4)cc3)c2C)cc(F)c1C(N)=O [Compound 26a, 2-Fluoro-6-methoxy-4-(4-methyl-5-(4-(4-methylpiperazin-1-yl)phenyl)pyridin-3-yl)benzamide] | 85.95 | 93.57 | 89.81 | 87.1 | 106 | 103 | 95.6 | 101 | 99
